The source of these data is patent US7084168B2, “Indoline derivatives” (Wyeth, priority 1999, dated 2006).

For data set [1], the system named is rat uterine decidualization. Description: Rat decidualization assay. In kind it is in vivo. As for the experimental part: 1. Rat Decidualization Assay
The materials and methods used in tins assay are as follows.
The animals are treated once daily for seven days.
Uteri are removed and trimmed of fat.
Decidual response: [(D-C)/C]×100%

Values joined by “and” are separate entries in the source; they are usually repeats but may differ in a detail not shown here. Equal values may be shown once.

For orientation: melting point means the temperature, or range, at which the solid turns liquid.

Take `C#C[C@]1(O)CC[C@H]2[C@@H]3CCC4=CC(=O)CC[C@@H]4[C@H]3C(=C)C[C@@]21CC` [3-Ketodesogestrel]: the “Estimated average EC50” value in data set [1] (rat decidual response, s.c., average of dose-response curves) is 0.10 mg/kg, s.c.

For the molecule `COc1cccc(-c2ccc3c(c2)C(C)(C)C(=O)N3)c1` [Example 3, 5-(3-Methoxy-phenyl)-3,3-dimethyl-1,3-dihydro-indol-2-one], the melting point is 157 to 158 °C. `N#Cc1cncc(-c2ccc3c(c2)C2(CCCCC2)C(=O)N3)c1` [Example 17, 5-(1′,2′-Dihydro-2′-oxospiro[cyclohexane-1,3′-[3H]indol]-5′-yl)-3-pyridine carbonitrile] had a melting point of 232 to 234 °C. On to `O=C1Nc2ccccc2C12CCCC(c1cccc(F)c1)C2` (centres unmarked) [Example 21, 5-(3-Fluorophenyl)spiro[cyclohexane-1,3′-[3H]indol]-2′(1′H)-one], for which the melting point fell in the range of 171 to 172 °C. On the same count and under the same terms, in the case of `O=C1Nc2ccc(-c3cccc(O)c3)cc2C12CCCCC2` [Example 33, 5′-(3-Hydroxyphenyl)spiro[cyclohexane-1,3′-[3H]indol]-2′(1′H)-one] it was 213 to 216 °C; in that of `CCOC(OCC)N1C(=O)C2(CCCCC2)c2cc(-c3cc(F)cc(C#N)c3)ccc21` [Example 50, 3-(1′-Diethoxymethyl-1′,2′-dihydro-2′-oxospiro[cyclohexane-1,3′-[3H]indol]-5′-yl)-5-fluorobenzonitrile], 146 °C. `O=C1Nc2ccc(-c3ccc(C=NO)c(F)c3)cc2C12CCCCC2` [Example 64, 2-fluoro-4-(1′,2′-Dihydro-2′-oxospiro[cyclohexane-1,3′-[3H]indol]-5′-yl) benzaldehyde oxime] yielded a melting point of 240 to 242 °C. The molecule `O=C1Nc2ccc(-c3cccc(C=NO)c3F)cc2C12CCCCC2` [Example 68, 2-fluoro-3-(1′,2′-Dihydro-2′-oxospiro[cyclohexane-1,3′-[3H]indol]-5′-yl) benzaldehyde oxime] showed a melting point of 213 to 217 °C. On to `N#CCc1cccc(-c2ccc3c(c2)C2(CCCCC2)C(=O)N3)c1` [Example 81, 3-(1′,2′-Dihydro-2′-oxospiro[cyclohexane-1,3′-[3H]indol]-5′-yl)phenylacetonitrile], for which the melting point was 190 to 193 °C. Still for that read-out and setting: in the case of `CC1(C)C(=O)Nc2ccc(-c3cc(F)cc(C#N)c3)cc21` [Example 82, 3-(3,3-Dimethyl-2-oxo-2,3-dihydro-1H-indol-5-yl)-5-fluoro-benzonitrile] it was 231.2 to 232.3 °C. As to `CC#C[C@]1(O)CC[C@H]2[C@@H]3CCC4=CC(=O)CCC4=C3[C@@H](c3ccc(N(C)C)cc3)C[C@@]21C` [RU486], the IC50 in data set [1] (decrease in EC50 progesterone induced decidual response in rat, p.o., individual studies) was 0.21 mg/kg, p.o. and 0.14 mg/kg, p.o.
